System: estradiol-induced increase in uterine weight
Assay: Anti-estrogenic activity (oral administration): inhibition of estradiol-induced increase in uterine weight in ovariectomized mice
Type: in vivo, mice (ICR)
Details: ovariectomized mice given 17β-estradiol-benzoate 0.1 μg/mouse s.c. for 3 days, test compound 10 mg/kg p.o., once a day, uterine weight 24 hours after last administration
Procedure: Test compounds were assayed for their oral anti-estrogenic activity in the following manner. In this experiment, the compounds prepared in Examples 2 and 3 were used as test compounds and the corresponding racemic mixture (10-[(3RS,4RS)-7-hydroxy-3-(4-hydroxyphenyl)-3-methylthiochroman-4-yl]-2-(4,4,5,5,5-pentafluoropentyl)decanoic acid was used as a control compound. This control compound was synthesized according to Reaction Schemes 1 to 7 mentioned above.
In this experiment, each of the test and control compounds was suspended in 5% arabic gum solution and orally administered for 3 days on a once-a-day basis. After 24 hours from the last administration, the test animals were sacrificed and the uteri were removed and weighed.

C[C@@]1(c2ccc(O)cc2)CSc2cc(O)ccc2[C@@H]1CCCCCCCCC(CCCC(F)(F)C(F)(F)F)C(=O)O (mixture of isomers) [10-[(3RS,4RS)-7-hydroxy-3-(4-hydroxyphenyl)-3-methylthiochroman-4-yl]-2-(4,4,5,5,5-pentafluoropentyl)decanoic acid, reference compound]
Inhibition (%): 75%

C[C@@]1(c2ccc(O)cc2)CSc2cc(O)ccc2[C@@H]1CCCCCCCCC(CCCC(F)(F)C(F)(F)F)C(=O)O (single isomer, unassigned) [Example 10, Peak 1]
Inhibition (%) (10 mg/kg): 87%

C[C@@]1(c2ccc(O)cc2)CSc2cc(O)ccc2[C@@H]1CCCCCCCCC(CCCC(F)(F)C(F)(F)F)C(=O)O (single isomer, unassigned) [Example 10, Peak 2]
Inhibition (%) (10 mg/kg): 78%

C[C@@]1(c2ccc(O)cc2)CSc2cc(O)ccc2[C@@H]1CCCCCCCCC(CCCC(F)(F)C(F)(F)F)C(=O)O (stereo partly drawn) [Example 2, 10-[(3R,4R)-7-Hydroxy-3-(4-hydroxyphenyl)-3-methylthiochroman-4-yl]-2-(4,4,5,5,5-pentafluoropentyl)decanoic Acid]
Inhibition (%): 90%

C[C@]1(c2ccc(O)cc2)CSc2cc(O)ccc2[C@H]1CCCCCCCCC(CCCC(F)(F)C(F)(F)F)C(=O)O (stereo partly drawn) [Example 3, 10-[(3S,4S)-7-Hydroxy-3-(4-hydroxyphenyl)-3-methylthiochroman-4-yl]-2-(4,4,5,5,5-pentafluoropentyl)decanoic Acid]
Inhibition (%): 69%

From patent US6610733B2, “Optically active chroman and thiochroman derivatives” (Chugai Seiyaku Kabushiki Kaisha, priority 1999, dated 2003)
